From patent US9491946B2, “Ag loaded silica nanoparticle/nanogel formulation, methods of making, and methods of use” (University of Central Florida Research Foundation, Inc., priority 2011, dated 2016)

How the values were obtained:
E. coli, ATCC 35218 [1] = format: cell-based, Escherichia coli; conditions: equivalent metallic Ag concentration
Experimental: (§1) Antibacterial properties of AgSiNP200 and AgSiNP50 were evaluated against Gram-positive, Bacillus subtilis (B. subtilis, ATCC 9372) and Staphylococcus aureus (S. aureus, ATTC 25923) and a Gram-negative, Escherichia coli (E. coli, ATCC 35218) organism. […] All the bacteria were obtained from the UCF Department of Molecular Biology and Microbiology Preparatory Laboratories) by Microbiology Department, University of Central Florida, Orlando. All the antibacterial assays were done using Mueller Hinton II medium (Fulka Analytical, USA).
(§2) The bacterial inhibition studies for the AgSiNP200 and AgSiNP50 were done using a method as described by Rastogi et al.^41. The procedure is briefly described below. Different concentrations of AgSiNP200 (metallic silver concentrations of 63.5 μg/ml, 38.1 μg/ml, 19.05 μg/ml, 9.53 μg/ml, 4.77 μg/ml, 2.68 μg/ml, 1.34 μg/ml, 953 ng/ml, 477 ng/ml, 95.3 ng/ml and 47.7 ng/ml) and AgSiNP50 (metallic silver concentrations of 30.24 μg/ml, 20.16 μg/ml, 10.08 μg/ml, 5.04 μg/ml, 2.52 μg/ml, 1.26 μg/ml, 630 ng/ml and 63 ng/ml) were prepared in sterile Mueller Hinton II broth in sterile tubes. To achieve uniform growth for this comparative study, all the tubes contained same amount of broth. We have used 0.85% of sterile saline to make up the volume to 0.9 ml in each tube. In the next step, 0.1 ml of 10^6 CFU/ml of bacteria culture was added to each tube. […]

B. subtilis, ATCC 9372 [2] = experiment: bacterial growth inhibition in LB broth using turbidity (Example 2); format: cell-based, Bacillus subtilis; conditions: 24 hours, 37° C., OD 600 nm
Experimental: (§3) Antibacterial properties of C—S CuSiNP and AgSiNG materials were evaluated against a gram positive Bacillus subtilis (B. subtilis, ATCC 9372) and a gram negative Escherichia coli (E. coli, ATCC 35218) organism. For all antibacterial assays, bacterial concentration of 10^5 cells/mL was considered. Copper sulfate with same metallic copper concentration was used as positive controls and silica nanoparticle (without Cu loading) was used as negative control.
(§4) Two sets of different concentrations of C—S CuSiNP were made in LB broth (0.49, 1.2, 2.4, 4.9, 7.2 and 9.8 ppm copper concentration) to a final volume of 10 mL. 250 μL (10^5 cells/mL) of E. coli and B. subtilis were added to set 1 and 2 respectively. Silica nanoparticle was used as negative control and copper sulfate with equivalent amount of copper was used as positive control. […]
(§5) The growth inhibitory effects of C—S CuSiNP and AgSiNG against E. coli and B. subtilis were studied in liquid media (FIG. 2.3 and FIG. 2.4). Bacterial growth with different concentrations of C—S CuSiNP and AgSiNG (0.49 to 9.8 μg mL^−1) was monitored after 24 hours of incubation at 37° C. by measuring the optical density at 600 nm using Teysche800 spectrophotometer. Since the turbidity of silica based material can interfere with the optical density reading, the background measurement was subtracted to calculate the final reading.

S. aureus, ATTC 25923 = format: cell-based, Staphylococcus aureus; conditions: equivalent metallic Ag concentration
Experimental: as §1, §2

B. subtilis, ATCC 9372 [3] = experiment: growth inhibition assay by turbidity (OD 600 nm), Mueller Hinton II broth; format: cell-based, Bacillus subtilis; conditions: equivalent metallic Ag concentration
Experimental: as §1, §2

E. coli, ATCC 35218 [4] = experiment: bacterial growth inhibition in LB broth using turbidity (Example 2); format: cell-based, Escherichia coli; conditions: 24 hours, 37° C., OD 600 nm
Experimental: as §3, §4, §5

O=[N+]([O-])[O-].[Ag+] [Ag nitrate, silver nitrate]
growth inhibition result in words (controls versus AgSiNP nanoformulations) (E. coli, ATCC 35218 [1]): no significant difference in growth inhibition results | silver concentration at which growth inhibition can be seen (B. subtilis, ATCC 9372 [2]): 2.4 ppm | growth inhibition result in words (controls versus AgSiNP nanoformulations) (S. aureus, ATTC 25923): no significant difference in growth inhibition results | growth inhibition result in words (controls versus AgSiNP nanoformulations) (B. subtilis, ATCC 9372 [3]): no significant difference in growth inhibition results | silver concentration at which growth inhibition can be seen (E. coli, ATCC 35218 [4]): 2.4 ppm
